Patent publication US20230295157A1, “3-(1H-IMIDAZOL-2-YL)-2,3,8,8A-TETRAHYDROINDOLIZIN-5(1H)-ONE DERIVATIVES USEFUL AS FACTOR XIA INHIBITORS” (JANSSEN PHARMACEUTICA NV, priority 2020, published 2023)

What was measured:
Factor XIa = Factor XIa (Homo sapiens (Human), UniProt P03951); test: Factor XIa inhibition assay (FLINT) utilizing a fluorophore-quencher pair peptide substrate; format: biochemical; details: 30 min preincubation, kinetic reads over 30 min, 5Fam-KLTRAETV-K5Tamra substrate 15 μM; read-out: FXIa Kin Inh IC50
Sequence of Factor XIa (P03951 388-625): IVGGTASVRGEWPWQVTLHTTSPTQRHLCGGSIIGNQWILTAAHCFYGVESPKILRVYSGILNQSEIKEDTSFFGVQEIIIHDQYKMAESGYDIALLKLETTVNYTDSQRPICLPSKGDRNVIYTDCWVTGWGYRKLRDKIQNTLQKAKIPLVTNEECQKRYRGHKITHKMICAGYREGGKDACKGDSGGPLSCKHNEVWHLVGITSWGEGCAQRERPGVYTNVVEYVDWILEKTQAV
Sequence of Factor XIa (P03951 19-387 partner): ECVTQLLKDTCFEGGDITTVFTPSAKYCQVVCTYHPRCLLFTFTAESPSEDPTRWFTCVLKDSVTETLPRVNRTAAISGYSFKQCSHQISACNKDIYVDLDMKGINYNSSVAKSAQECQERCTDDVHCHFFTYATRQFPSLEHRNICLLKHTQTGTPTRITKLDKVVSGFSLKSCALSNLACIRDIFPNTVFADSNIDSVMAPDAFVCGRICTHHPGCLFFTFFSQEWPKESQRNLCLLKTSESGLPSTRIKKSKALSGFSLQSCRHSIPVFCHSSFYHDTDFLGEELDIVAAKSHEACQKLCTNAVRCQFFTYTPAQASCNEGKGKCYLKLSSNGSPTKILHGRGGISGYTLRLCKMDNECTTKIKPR
How it was run: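 FXIa ([…]) preincubated 30 min with compound (11-point 3-fold dilution, top 100 nM, 2% DMSO), then 15 μM quenched FXI Arg146-based peptide added; Tris pH 7.5, CaCl2, BSA, CHAPS. Fluorescence 485/520 nm read kinetically every 5 min over 30 min at RT; IC50 by 4-parameter fit.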

human plasma kallikrein = human plasma kallikrein (Homo sapiens (Human), UniProt P03952); test: Kallikrein inhibition assay (FLINT) utilizing a quenched AMC peptide substrate; format: biochemical; details: 30 min preincubation, kinetic reads over 30 min, Z-Gly-Pro-Arg-AMC substrate 50 μM; read-out: Kallikrein Kin Inh IC50
Sequence of human plasma kallikrein (P03952 391-638): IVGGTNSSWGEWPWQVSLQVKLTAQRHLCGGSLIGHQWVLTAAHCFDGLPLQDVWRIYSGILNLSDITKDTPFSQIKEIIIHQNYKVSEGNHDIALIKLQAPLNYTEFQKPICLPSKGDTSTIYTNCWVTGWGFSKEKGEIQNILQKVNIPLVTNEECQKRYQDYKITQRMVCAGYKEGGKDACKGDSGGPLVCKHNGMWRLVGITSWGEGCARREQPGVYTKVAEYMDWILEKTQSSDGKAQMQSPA
Sequence of human plasma kallikrein (P03952 20-390 partner): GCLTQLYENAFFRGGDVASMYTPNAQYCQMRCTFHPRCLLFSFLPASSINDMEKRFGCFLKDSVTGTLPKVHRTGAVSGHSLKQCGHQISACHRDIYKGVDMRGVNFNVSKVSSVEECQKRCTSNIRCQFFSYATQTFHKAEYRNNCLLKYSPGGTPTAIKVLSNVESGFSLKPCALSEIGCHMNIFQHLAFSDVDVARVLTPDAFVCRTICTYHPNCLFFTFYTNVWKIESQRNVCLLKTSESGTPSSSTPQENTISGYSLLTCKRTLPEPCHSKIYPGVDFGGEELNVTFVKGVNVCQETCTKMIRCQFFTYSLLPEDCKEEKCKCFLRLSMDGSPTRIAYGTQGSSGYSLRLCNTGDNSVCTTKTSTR
How it was run: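 Fluorogenic Z-Gly-Pro-Arg-AMC cleavage (50 μM substrate, 2 nM kallikrein, Tris pH 7.5, CaCl2, BSA, CHAPS, 2% DMSO) read kinetically at 340/440 nm for 30 min after 30-min compound pre-incubation. Compounds in 11-point 3-fold series from 1 μM; percent inhibition fitted to four-parameter equation for IC50.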

SMILES	IC50 (Factor XIa)	IC50 (human plasma kallikrein)
COc1cc2[nH]cc(-c3cnc([C@@H]4CC[C@@H]5CC(c6c(-n7cnnn7)ccc(Cl)c6F)=CC(=O)N54)[nH]3)c2cn1 [Example 388, (3S,8aR)-7-(3-chloro-2-fluoro-6-(1H-tetrazol-1-yl)phenyl)-3-(5-(6-methoxy-1H-pyrrolo[3,2-c]pyridin-3-yl)-1H-imidazol-2-yl)-2,3,8,8a-tetrahydroindolizin-5(1H)-one]	0.5 nM	1.9 nM
Nc1cc(-c2cnc([C@@H]3CC[C@@H]4CC(c5c(-n6cnnn6)ccc(Cl)c5F)=CC(=O)N43)[nH]2)ccn1 [Example 389, (3S,8aR)-3-(5-(2-aminopyridin-4-yl)-1H-imidazol-2-yl)-7-(3-chloro-2-fluoro-6-(1H-tetrazol-1-yl)phenyl)-2,3,8,8a-tetrahydroindolizin-5(1H)-one]	1.4 nM	12.4 nM
CCNc1nccc(-c2cnc([C@@H]3CC[C@@H]4CC(c5c(-n6cnnn6)ccc(Cl)c5F)=CC(=O)N43)[nH]2)c1F [Example 390, (3S,8aR)-7-(3-chloro-2-fluoro-6-(1H-tetrazol-1-yl)phenyl)-3-(5-(2-(ethylamino)-3-fluoropyridin-4-yl)-1H-imidazol-2-yl)-2,3,8,8a-tetrahydroindolizin-5(1H)-one]	0.4 nM	1.3 nM
CC12CC[C@@H](c3ncc(-c4ccnc(CO)c4F)[nH]3)N1C(=O)C=C(c1c(-n3cnnn3)ccc(Cl)c1F)C2 (stereo partly drawn) [Example 391, (3S)-7-(3-chloro-2-fluoro-6-(1H-tetrazol-1-yl)phenyl)-3-(5-(3-fluoro-2-(hydroxymethyl)pyridin-4-yl)-1H-imidazol-2-yl)-8a-methyl-2,3,8,8a-tetrahydroindolizin-5(1H)-one]	33.3 nM	35.4 nM
